# Measured values reported in patent US5506243A, “Sulfonamide derivatives” (Mitsubishi Kasei Corporation, priority 1993, dated 1996).
# pIC50: −log10 of the molar value.
# Molecular target: T1, m-Calpin (Rattus norvegicus, UniProt Q07009)
# T1 construct: m-Calpin was purified from brains of rats; from tissue; host or cells: rat brain
# T1 sequence (Q07009 1-700): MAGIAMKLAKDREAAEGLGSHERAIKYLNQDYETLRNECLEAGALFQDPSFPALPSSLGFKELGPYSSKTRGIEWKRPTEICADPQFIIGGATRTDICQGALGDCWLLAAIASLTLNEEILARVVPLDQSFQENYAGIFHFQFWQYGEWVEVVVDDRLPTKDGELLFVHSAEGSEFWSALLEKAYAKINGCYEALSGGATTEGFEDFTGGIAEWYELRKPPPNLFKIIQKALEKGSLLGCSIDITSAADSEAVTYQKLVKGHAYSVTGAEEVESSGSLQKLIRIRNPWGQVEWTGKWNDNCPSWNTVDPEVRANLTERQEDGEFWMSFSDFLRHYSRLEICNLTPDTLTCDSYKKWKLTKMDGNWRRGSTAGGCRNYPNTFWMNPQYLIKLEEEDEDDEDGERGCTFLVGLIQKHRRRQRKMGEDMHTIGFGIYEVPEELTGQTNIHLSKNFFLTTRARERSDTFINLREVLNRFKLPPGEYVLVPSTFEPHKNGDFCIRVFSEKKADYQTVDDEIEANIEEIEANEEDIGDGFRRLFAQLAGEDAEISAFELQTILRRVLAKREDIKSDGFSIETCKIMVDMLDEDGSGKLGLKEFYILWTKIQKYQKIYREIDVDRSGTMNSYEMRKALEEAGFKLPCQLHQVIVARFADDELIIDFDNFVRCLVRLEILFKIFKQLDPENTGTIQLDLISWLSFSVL
# T1 sequence (Q64537 1-270 partner): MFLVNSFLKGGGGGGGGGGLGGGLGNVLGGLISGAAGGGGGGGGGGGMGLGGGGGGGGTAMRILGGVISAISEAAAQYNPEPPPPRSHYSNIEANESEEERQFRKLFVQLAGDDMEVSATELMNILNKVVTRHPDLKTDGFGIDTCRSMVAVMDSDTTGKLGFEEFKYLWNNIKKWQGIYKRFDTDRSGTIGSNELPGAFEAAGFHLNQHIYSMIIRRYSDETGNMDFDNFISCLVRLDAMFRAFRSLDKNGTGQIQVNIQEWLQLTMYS
# Test: Measurement of calpain inhibitory activity
# Format: biochemical
# Details: m-calpain purified from brains of rats
# Experimental: Measurement of calpain inhibitory activity
# For comparison, inhibitory activity of leupeptin (N-terminus is in the form of amide) and calpeptin (N-terminus is in the form of carbamate) was also measured.
row,Structure (SMILES),pIC50
1,CC(=O)N[C@@H](CC(C)C)C(=O)N[C@@H](CC(C)C)C(=O)N[C@H](C=O)CCCNC(=N)N [Leupeptin],6.44
2,"CC(C)C[C@H](NS(=O)(=O)c1cccnc1)C(=O)N[C@H](C=O)C(C)C [Example 2, N-3-pyridylsulfonyl-L-leucyl-L-valinal]",8.19
3,CCCC[C@@H](C=O)NC(=O)[C@H](CC(C)C)NC(=O)OCc1ccccc1 [Calpeptin],7.34
4,"CC(C)C[C@H](NS(=O)(=O)c1ccccc1)C(=O)N[C@H](C=O)C(C)C [Example 1, N-phenylsulfonyl-L-leucyl-L-valinal]",7.96
